Assay: Volatility and smell of non-salt acetals, neat and embedded in polymer films brushed on polyethylene film and air-dried
Assay type: physicochemical
Settings: embedded in PVP/VA, Eudragit E-100 and Eudragit S-100, brushed on polyethylene films, air-dried
Text: 1. Acetal of citronellal with ethanol and acetal of vanillin with ethanol were custom-synthesized. Their structures are shown below. […] The acetals were embedded in PVP/VA, Eudragit E-100, and Eudragit S-100 by simply dissolving the acetals in the solutions of those polymers. The solutions were then brushed on polyethylene films and air-dried. The parent aldehydes were also embedded in the same ratio in those polymers. Strong smells of both parent aldehydes and acetals could be nasally detected after drying. Those non-salt based acetals cannot effectively reduce the volatility of aldehyde-based fragrances and are not good pro-actives for stabilizing those fragrances.

Structure (SMILES) | smell nasally detected after drying
CCOC(CC(C)CCC=C(C)C)OCC (stereo not shown) [Acetal of citronellal with ethanol] | Strong smells
CCOC(OCC)c1ccc(O)c(OC)c1 [acetal of vanillin with ethanol] | Strong smells
CC(C)=CCCC(C)CC=O (stereo not shown) [citronellal] | Strong smells
COc1cc(C=O)ccc1O [vanillin] | Strong smells

From patent publication US20150238394A1, “Triggerable Compositions For Two-Stage, Controlled Release of Proactive Chemistry Using Aldehydes” (Kimberly-Clark Worldwide, Inc., priority 2014, published 2015)
